# Experimental data taken from patent US20260257992A1, “AGONISTS OF SMALL HETERODIMER PARTNER FOR CANCER THERAPY” (THE BOARD OF TRUSTEES OF THE UNIVERSITY OF ILLINOIS, priority 2023, published 2026).
# Experiments:
# Treg expansion = Treg expansion in co-culture with compound-treated BMDMs (macrophages); type: cell-based, mouse; parameters: key to Treg expansion macrophages: ✓: using strict cutoffs with respect to DSHN for passing each metric; X: using strict cutoffs with respect to DSHN for passing each metric; conditions: for Treg expansion after BMDM pretreatment and washout: BMDMs pretreated, washed before co-culture with T cells; for Treg expansion, co-culture with treated BMDMs: dose response
# Experimental: Preparation of Bone Marrow-Derived Macrophages (BMDMs) and Dendritic Cells. Bone marrow cells were collected from mouse tibia and femur. Cells were passed through 70-micron cell strainer and subsequently cultured 10 mL complete RPMI media supplemented with 20 ng/mL of recombinant murine M-CSF (576406; BioLegend, 315-02 PeproTech). On day 3, additional 5 ml of the complete media was added. On day 7, media was replaced. BMDMs were harvested on day 10 using cell stripper solution for further experiments. Dendritic cells were isolated from the spleens of wildtype, using mouse CD11c UltraPure MicroBeads (130-125-835; Miltenyi Biotec) according to the manufacturer's instructions) and cultured in RPMI medium supplemented with 10% heat-inactivated charcoal-stripped FBS, 50 μM β-mercaptoethanol, 1% sodium pyruvate, 1% nonessential amino acids, % penicillin/streptomycin, and 1% Glutamax.
# In vitro Treg expansion assays. T cells were cultured in RPMI medium supplemented with 10% heat-inactivated charcoal-stripped FBS, 50 μM β-mercaptoethanol (Gibco), 1% sodium pyruvate, 1% nonessential amino acids, % penicillin/streptomycin, and 1% Glutamax (Gibco). Naïve CD4^+ T cells were isolated from the spleens of wildtype and OT-II, using Naive CD4^+ T Cell Isolation Kit (Miltenyi Biotec according to the manufacturer's instructions). T cells were labeled with the vital dye CFSE (BioLegend) or Cell Trace Violet (ThermoFisher) according to the manufacturer's instructions. For wildtype Treg expansion in presence of antigen presenting cells, naïve CD4^+ T cells were co-cultured with APC at indicated ratio in the presence of 0.5 μg/mL (anti-CD3 BioLegend), 0.5 ng/mL TGFβ (BioLegend) and 0.5 ng/ml IL-2 (BioLegend) for 72 hr at 37° C. For OT-II Treg expansion, OTII naïve CD4^+ T cells from OT-II mice were activated by antigen presentation by culturing BMDMs were primed with 10 μg/mL OVA323-339 (Bachem) and 0.5 μg/mL LPS (Sigma). naïve CD4+ T cells from OTII mice were co-cultured with primed APC at indicated ratio for 72 hrs. After 72 hrs of culture, cells were transferred into V-bottom plates (BD), pelleted by centrifugation and incubated with antibody staining mix containing Ghost Dye™ Red 780 viability dye diluted in PBS for 15 minutes at 4° C. Cell surface antigens were stained for 15 minutes at 4° C. with an antibody staining mix containing Ghost Dye™ Red 780 viability dye diluted in PBS. Cells were fixed and permeabilized with BD Cytofix/Cytoperm™ for 20 minutes at 4° C. Antibodies against intracellular antigens were diluted in 1×BD Perm/Wash™ buffer and cells were stained for 30 minutes at 4° C. Cytometry data were acquired on a LSRII, Fortessa, Symphony A1 (Becton Dickinson, NJ). Foxp3 induction was assessed by expression of FOXP3.
# E0771 tumors = experiment: Orthotopic syngeneic E0771 mammary tumor growth; type: in vivo, mouse
# Description: FIG. 3A-3F. DSHN, a tool small molecule agonist of NR0B2 reduces macrophage/dendritic cell induced Treg expansion and tumor growth in murine models. […] (B) Dendritic cells (left-CD11B^+; CD11C^+) and CD4^+ T cells (right) were isolated from MMTV-PyMT tumors by FACS, and treated with vehicle or DSHN for 3d. The resulting frequency of Treg (CD4^+; CD25^+; FoxP3^+) was quantified by flow cytometry (right graph), (N=3-5/group, t test). […] The percentage of divided CD8+ T cells in the second round was quantified. (D) DSHN increases efficacy of αPDL1 therapy on orthotopic E0771 tumors. An optimal number of E0771 cells were grafted into FoxP3-EGFP mice and allowed to grow until tumors reached 100 mm^3. Mice were euthanized on day 19 (waterfall plot, Fisher's exact test). (E) DSHN increases efficacy of αPDL1 therapy on orthotopic 4T1 tumors. 4T1 cells were orthotopically grafted into mice and allowed to establish for 5d prior to treatment start. Mice were euthanized on day 16 (waterfall plot, Fisher's exact test). (F) DSHN reduces metastatic outgrowth of 4T1 tumors and enhances efficacy of αPDL1 compared to placebo (p) (2-way ANOVA followed by Šidák's multiple comparison test for day 16). 4T1 cells were grafted intravenously, and lung metastatic lesions allowed to establish for 3d before treatment commenced. At the end of the study, lungs were removed and imaged ex vivo, quantified data indicated (N=10, 1-way ANOVA followed by Newman-Keuls multiple comparison test). Representative luciferase images shown to the right. * or different letters denote P<0.05 using indicated statistical test.
# FIG. 7A-7I. DSHN-OMe reduces tumor and metastatic growth in murine models, in a myeloid cell-NR0B2 dependent manner. (A) E0771 cells were grafted into control mice (NR0B2^+/+; LysMCre^+) or mice where NR0B2 was knocked out in myeloid immune cells (NR0B2^fl/fl; LysMCre^+). […] (G) EMT6 metastatic lungs were assessed for Ki67 mRNA and (H) FOXP3 mRNA. (I) EMT6 metastatic lungs were assessed for CD8+ cytotoxic T cells (CD8+). […]
SMILES,Treg expansion after BMDM pretreatment and washout (Treg expansion),"Treg expansion, co-culture with treated BMDMs (Treg expansion)","Growth of established E0771 tumors, combined with αPDL1 (E0771 tumors; DSHN combined with αPDL1)",Treg expansion macrophages (Treg expansion; pass/fail with respect to DSHN),"E0771 tumor growth, myeloid NR0B2 knockout (E0771 tumors; NR0B2fl/fl, LysMCre+ mice)","E0771 tumor growth (E0771 tumors; control NR0B2+/+, LysMCre+ mice, daily treatment from day 8)"
"CCN(CC)S(=O)(=O)c1cccc2cc(C(=O)O)c(O)cc12 [DSHN, reference compound]",not effective at reducing Treg expansion,reduced subsequent Treg expansion in a dose related manner,decreased growth,–,–,–
"CCN(CC)S(=O)(=O)c1cccc2cc(C(=O)OC)c(O)cc12 [DSHN-OMe, Methyl 5-(N,N-diethylsulfamoyl)-3-hydroxy-2-naphthoate]",decreased Treg expansion,"elicited a reduction in Treg expansion with a lower dose, and had a larger biological maximum",–,✓,no significant impact,significantly reduced E0771 tumor growth
